Values of other authors, collected in patent publication US20060257502A1, “A COMBINATION OF MITOCHONDRIAL NUTRIENTS FOR RELIEVING STRESS, PREVENTING AND IMPROVING STRESS-RELATED DISORDERS” (priority 2005, published 2006).

Test system: rats

Compound: Oc1ccc(/C=C/c2cc(O)cc(O)c2)cc1 [Resveratrol, trans-3,5,4′-trihydroxystilbene]
- No observed adverse effect level: 300 mg per kilogram body weight per day
